Peptide text beside a SMILES is read from it.
Tested on: Botrytis cinerea (B05.10)
Test: Resazurin antifungal assay of 180 alpha-factor peptide variants towards Botrytis (Example 2)
Type: cell-based
Conditions: % inhibition of fungal growth, Botrytis conidia, resazurin; for Inhibition at 50 μM: peptide 50 μM; for Inhibition at 100 μM: peptide 100 μM
How it was run: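 B. cinerea B05.10 conidia (5000/well) were exposed to peptides at 100, 50, 20, 15 and 10 μM final for 24 h at 20° C. Resazurin was then added and fluorescence read at 570/620 nm. Percent growth inhibition was calculated against conidia-only wells, with four technical replicates.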

Structure (SMILES)	Inhibition at 50 μM [%]	Inhibition at 100 μM [%]
CSCC[C@H](NC(=O)[C@@H]1CCCN1C(=O)[C@H](CCSC)NC(=O)CNC(=O)[C@@H](NC(=O)[C@H](CCCCN)NC(=O)[C@H](CC(C)C)NC(=O)[C@H](CCC(=O)O)NC(=O)[C@H](CC(C)C)NC(=O)[C@H](Cc1c[nH]c2ccccc12)NC(=O)[C@H](CS)NC(=O)[C@@H](N)CCCCN)[C@@H](C)O)C(=O)N[C@@H](Cc1ccc(O)cc1)C(=O)O [compound 35] (H-KCWLELKTGMPMY-OH; N-terminus and C-terminus assumed)	<90	97.61
CSCC[C@H](NC(=O)[C@H](Cc1c[nH]cn1)NC(=O)[C@@H](N)Cc1c[nH]c2ccccc12)C(=O)N[C@@H](CC(C)C)C(=O)N[C@@H](CCC(=O)O)C(=O)N[C@@H](Cc1ccccc1)C(=O)N[C@@H](CCCCN)C(=O)N1CCC[C@H]1C(=O)NCC(=O)N[C@@H](CCC(N)=O)C(=O)N1CCC[C@H]1C(=O)N[C@@H](CCSC)C(=O)N[C@@H](Cc1ccc(O)cc1)C(=O)O [compound 36] (H-WHMLEFKPGQPMY-OH; N-terminus and C-terminus assumed)	<90	<90
CC[C@H](C)[C@H](NC(=O)[C@H](Cc1c[nH]c2ccccc12)NC(=O)[C@H](Cc1c[nH]cn1)NC(=O)[C@@H]1CCCN1)C(=O)N[C@@H](CCC(N)=O)C(=O)N[C@@H](CC(C)C)C(=O)N[C@@H](Cc1ccccc1)C(=O)N[C@@H](CC(N)=O)C(=O)NCC(=O)N[C@@H](CCC(N)=O)C(=O)N1CCC[C@H]1C(=O)N[C@@H](CCSC)C(=O)N[C@@H](Cc1ccc(O)cc1)C(=O)O [compound 37] (H-PHWIQLFNGQPMY-OH; N-terminus and C-terminus assumed)	<90	<90
CSCC[C@H](NC(=O)[C@@H]1CCCN1C(=O)[C@H](CCC(=O)O)NC(=O)CNC(=O)[C@@H]1CCCN1C(=O)[C@H](CCCCN)NC(=O)[C@H](Cc1ccccc1)NC(=O)[C@H](CCC(N)=O)NC(=O)[C@H](CC(C)C)NC(=O)[C@@H](NC(=O)[C@H](Cc1c[nH]cn1)NC(=O)[C@@H](N)CCCCN)C(C)C)C(=O)N[C@@H](Cc1ccc(O)cc1)C(=O)O [compound 38] (H-KHVLQFKPGEPMY-OH; N-terminus and C-terminus assumed)	<90	<90
CSCC[C@H](NC(=O)[C@@H]1CCCN1C(=O)[C@H](CCC(N)=O)NC(=O)CNC(=O)[C@@H]1CCCN1C(=O)[C@H](CCCCN)NC(=O)[C@H](Cc1ccccc1)NC(=O)[C@H](CCC(N)=O)NC(=O)CNC(=O)[C@H](Cc1c[nH]c2ccccc12)NC(=O)[C@H](CO)NC(=O)[C@@H](N)CCCCN)C(=O)N[C@@H](Cc1ccc(O)cc1)C(=O)O [compound 39] (H-KSWGQFKPGQPMY-OH; N-terminus and C-terminus assumed)	<90	<90
CC[C@H](C)[C@H](NC(=O)[C@H](Cc1c[nH]c2ccccc12)NC(=O)[C@H](CCC(=O)O)NC(=O)[C@@H]1CCCN1)C(=O)N[C@@H](CCC(N)=O)C(=O)N[C@@H](CC(C)C)C(=O)N[C@@H](CCCCN)C(=O)N[C@H](C(=O)NCC(=O)N[C@@H](CCSC)C(=O)N1CCC[C@H]1C(=O)N[C@@H](CCSC)C(=O)N[C@@H](Cc1ccc(O)cc1)C(=O)O)[C@@H](C)O [compound 40] (H-PEWIQLKTGMPMY-OH; N-terminus and C-terminus assumed)	<90	<90
CSCC[C@H](NC(=O)[C@@H]1CCCN1C(=O)[C@H](CCC(N)=O)NC(=O)CNC(=O)[C@@H]1CCCN1C(=O)[C@H](CCCCN)NC(=O)[C@H](Cc1ccccc1)NC(=O)[C@H](CC(N)=O)NC(=O)[C@H](CC(C)C)NC(=O)[C@H](CC(C)C)NC(=O)[C@H](Cc1c[nH]cn1)NC(=O)[C@@H]1CCCN1)C(=O)N[C@@H](Cc1ccc(O)cc1)C(=O)O [compound 41] (H-PHLLNFKPGQPMY-OH; N-terminus and C-terminus assumed)	<90	<90
CSCC[C@H](NC(=O)[C@@H]1CCCN1C(=O)[C@H](CCC(N)=O)NC(=O)CNC(=O)[C@H](CO)NC(=O)[C@H](Cc1c[nH]c2ccccc12)NC(=O)[C@H](CC(C)C)NC(=O)[C@H](CCC(N)=O)NC(=O)CNC(=O)[C@H](CO)NC(=O)[C@H](Cc1c[nH]cn1)NC(=O)[C@@H]1CCCN1)C(=O)N[C@@H](Cc1ccc(O)cc1)C(=O)O [compound 42] (H-PHSGQLWSGQPMY-OH; N-terminus and C-terminus assumed)	<90	<90
CSCC[C@H](NC(=O)[C@@H]1CCCN1C(=O)[C@H](CCC(N)=O)NC(=O)CNC(=O)[C@H](CC(C)C)NC(=O)[C@H](CCCCN)NC(=O)[C@H](Cc1ccccc1)NC(=O)[C@H](CCC(N)=O)NC(=O)CNC(=O)[C@H](Cc1c[nH]c2ccccc12)NC(=O)[C@H](Cc1c[nH]cn1)NC(=O)[C@@H]1CCCN1)C(=O)N[C@@H](Cc1ccc(O)cc1)C(=O)O [compound 43] (H-PHWGQFKLGQPMY-OH; N-terminus and C-terminus assumed)	<90	<90
CSCC[C@H](NC(=O)CNC(=O)[C@H](CCC(N)=O)NC(=O)CNC(=O)[C@@H](NC(=O)[C@H](CCCCN)NC(=O)[C@H](CC(C)C)NC(=O)[C@H](CC(N)=O)NC(=O)[C@@H](NC(=O)[C@H](Cc1c[nH]c2ccccc12)NC(=O)[C@H](Cc1c[nH]cn1)NC(=O)[C@@H]1CCCN1)C(C)C)[C@@H](C)O)C(=O)N[C@@H](Cc1ccc(O)cc1)C(=O)O [compound 44] (H-PHWVNLKTGQGMY-OH; N-terminus and C-terminus assumed)	<90	<90
CSCC[C@H](NC(=O)[C@H](CO)NC(=O)[C@H](CCC(N)=O)NC(=O)CNC(=O)[C@@H]1CCCN1C(=O)[C@H](CCCCN)NC(=O)[C@H](Cc1ccccc1)NC(=O)[C@H](CCC(N)=O)NC(=O)[C@H](CC(C)C)NC(=O)CNC(=O)[C@@H](NC(=O)[C@@H]1CCCN1)[C@@H](C)O)C(=O)N[C@@H](Cc1ccc(O)cc1)C(=O)O [compound 45] (H-PTGLQFKPGQSMY-OH; N-terminus and C-terminus assumed)	<90	<90
CSCC[C@H](NC(=O)[C@@H]1CCCN1C(=O)[C@H](CCC(N)=O)NC(=O)CNC(=O)[C@@H](NC(=O)[C@H](CC(N)=O)NC(=O)[C@H](CC(C)C)NC(=O)[C@H](CO)NC(=O)[C@H](CC(C)C)NC(=O)[C@H](Cc1c[nH]c2ccccc12)NC(=O)[C@H](Cc1c[nH]cn1)NC(=O)[C@@H](N)Cc1c[nH]c2ccccc12)[C@@H](C)O)C(=O)N[C@@H](Cc1ccc(O)cc1)C(=O)O [compound 46] (H-WHWLSLNTGQPMY-OH; N-terminus and C-terminus assumed)	<90	97.03
CSCC[C@H](NC(=O)[C@@H]1CCCN1C(=O)[C@H](CCC(N)=O)NC(=O)CNC(=O)[C@@H]1CCCN1C(=O)[C@H](Cc1c[nH]c2ccccc12)NC(=O)[C@H](CC(C)C)NC(=O)[C@H](CCC(=O)O)NC(=O)[C@H](CC(C)C)NC(=O)[C@H](CC(=O)O)NC(=O)[C@H](Cc1c[nH]cn1)NC(=O)[C@@H](N)CCCCN)C(=O)N[C@@H](Cc1ccc(O)cc1)C(=O)O [compound 47] (H-KHDLELWPGQPMY-OH; N-terminus and C-terminus assumed)	<90	<90
